Assay results: patent EP3167873A1, “AQUEOUS SOLUTION OF CONDENSATION PRODUCTS OF TAURINAMIDE AND METHYLENE GLYCOL FOR USE AS ANTI-INFECTIVE AGENT IN THE IMPLANTATION OF DEVICES IN CARDIAC SURGERY” (Weis, Christian Edwin, priority 2015, dated 2017)

Tests used:
[1] = system: MRSA (Methicillin-resistenter Staphylococcus aureus); conditions: cited from earlier work
Biofilme = conditions: cited from earlier work
ESKAPE Pathogene = conditions: cited from earlier work
[2] = system: VRE (Vancomycin-resistente Enterokokken); conditions: cited from earlier work
Bakterien = conditions: contact of the solution with microorganisms / contaminated surfaces; cited from earlier work
[3] = parameters: species or system Patienten; conditions: in vivo
Description: Schrittmacherimplantationen unter erfindungsgemäßer Verwendung einer 2,0 Gew.-%igen wässrigen Taurolidinlösung sind in der nachfolgenden Tabelle 1 tabellarisch erfasst. Die Tabelle gibt dabei die Befunde für 45 Implantationen, einschließlich von 9 Fällen des Austauschs eines Aggregats gegen ein neues, wieder, die im Zeitraum zwischen Februar und September 2015 erfolgten, wobei in allen Fällen die angegebene 2,0 Gew.-%ige wässrige Taurolidinlösung wie beschrieben zur Anwendung kam.

Infektionen [4] = assay: Clinical use in pacemaker/ICD implantation: device treated and pocket rinsed, infections observed after implantation; assay type: in vivo, Patienten
Description: Bei der Verwendung wird üblicherweise so vorgegangen, dass die implantierbare Vorrichtung vor der Implantation für die zur Erzielung der gewünschten optimalen antimikrobiellen Wirkung und zur vollständigen Benetzung aller Oberflächen der Vorrichtung erforderliche Zeit, gemäß einer bevorzugten Praxis etwa 20 Minuten, in die Lösung eingelegt wird und danach die implantierbare Vorrichtung, z.B. das Gehäuse eines Herzschrittmachers, mit einem Film der wässrigen Lösung auf ihrer Oberfläche in die vom operierenden Chirurgen vorbereitete Tasche implantiert wird.
Die Tasche wird anschließend mit der restlichen Lösung (ca. 100 ml) gespült.
In einer kardiologischen Station eines akademischen Lehrkrankenhauses, in der routinemäßig und in großer Zahl Patienten Herzschrittmacher implantiert werden, gehörte es zur Praxis, zur Infektionsvermeidung die zu implantierenden Herzschrittmachergehäuse während der Implantation mit einer Lösung von Wasserstoffperoxid zu behandeln, wobei gleichzeitig eine Wundspülung mit Wasserstoffperoxid stattfindet. Dabei kommt es zur Freisetzung von Sauerstoff und starkem Aufschäumen. Trotz der bakteriziden Eigenschaften von verdünntem Wasserstoffperoxid ist die Wirkung der Behandlung als Infektionsprophylaxe bei der Implantation von Geräten nicht verifiziert. […]

Infektionen [5] = conditions: irrigation (wound rinsing); cited from earlier work

Compound | Wirksamkeit [1] | Wirksamkeit gegen Biofilme (Biofilme) | Wirksamkeit (ESKAPE Pathogene) | Wirksamkeit [2] | Kontaktdauer bis zur vollen antibakteriellen Wirkung (Bakterien) [Minuten] | Wundheilung [3] | Infektion (Infektionen [4]; 45 implantations of Tabelle 1 (February to September 2015), 2,0 Gew.-% aqueous Taurolidin solution, observed up to filing date) | Infektionen (Infektionen [4]; pacemaker laid about 20 min in 2,0 Gew.-% Taurolidin solution before implantation, pocket rinsed with rest (ca. 100 ml), comparable number of implantations) | Verbesserung der Infektionsrate (Infektionen [5])
O=S1(=O)CCN(CN2CCS(=O)(=O)NC2)CN1 [Taurolidin] | voll wirksam | wirksam | voll wirksam | voll wirksam | ≥ 10 | gute, ungestörte Wundheilung | bei keinem einzigen der Patienten eine Infektion beobachtet | keinerlei Infektionen beobachtet | –
Povidon-Iod | – | – | – | – | – | – | – | – | keine nennenswerte Verbesserung beobachtet
